Source: US20250313526A1, “PYRETHROID COMPOUND CONTAINING DOUBLE BONDS AND CYANO GROUPS, SYNTHESIS METHOD THEREFOR, AND APPLICATION THEREOF” (Jiangsu Yangnong Chemical Co., Ltd., priority 2022, published 2025)

What was measured:
Format in all cases: in vivo
Flies = test: Insecticidal aerosol efficacy, sealed drum apparatus (GB/T13917.2-2009), flies; settings: 1 g sprayed; for Mortality rate: aerosol 0.3% active ingredient, 24 h; for KT50: aerosol containing 0.3% active ingredient
Procedure: (§1) 0.3 parts by weight of compound 1 with 59.7 parts by weight of kerosene were heated and evenly mixed to prepare an insecticide. The resulting preparation was placed in an aerosol can equipped with a valve, through which 40.0 parts by weight of propane and butane were injected underpressure, to obtain an insecticidal aerosol containing 0.3% compound 1.
(§2) The insecticidal aerosol was tested for efficacy on mosquitoes, flies, and German cockroaches in accordance with GB/T13917.2-2009, using a sealed drum apparatus. The specific process was as follows: placing the test insects into a tank, and after the test insects resumed normal activities, quantitatively spraying 1 g of the agent from the insecticidal aerosol can, pulling out the baffle after 1 min to make the test insects in contact with the agent, immediately starting timing and recording the number of the test insects knocked down at regular intervals, transferring all the test insects to a clean insect rearing cage after 20 min, and checking the number of dead insects after 24 h, wherein the German cockroaches were tested for 72-h mortality rate.
(§3) The aerosols of compounds 1-3, Momflurothrin and tetramethylfluthrin were prepared according to Test Example 2, and were tested for efficacy.

[1] = tested on: female mosquitoes of Culex pipiens pallens; test: Mosquito-repellent incense mosquito-killing efficacy, sealed drum apparatus (GB/T13917.4-2009); settings: for KT50: mosquito-repellent incense W1-W5, active ingredient 0.04 w/w %, incense burnt 1 min, 20 female Culex pipiens pallens
Procedure: 99.96 parts by weight of a mixture consisting of corn starch, carbon powder and wood powder (1:5:4) were added with 120 parts by mass of water, kneaded into shape, and then dried to form a mosquito-repellent incense substrate (with a diameter of 12.0 cm, a thickness of 4 mm, and a pair weighing 40 g).
On the other hand, a 0.4 w/v % solution of compound 1 in kerosene was prepared. The set of incense substrate was uniformly spray-coated with 4 ml of the above solution using a microsyringe, and then left to dry at room temperature for 3 h to obtain a set of mosquito-repellent incense W1 containing 0.04 w/w % compound 1.
Similarly, compounds 2-3 of the present invention shown in Table 1, as well as Momfluorothrin and tetramethylfluthrin were prepared respectively to obtain corresponding mosquito-repellent incenses W2 to W5.
The mosquito-repellent incenses W2 to W5 were measured and compared in terms of mosquito-killing efficacy in accordance with GB/T13917.4-2009. […] The specific process was as follows: sucking 20 test mosquitoes with a mosquito suction tube, placing them into a sealed drum apparatus, taking a section of mosquito-repellent incense to be tested and placing it on an incense holder, lighting the incense and starting timing, removing the mosquito-repellent incense after 1 min, and recording the number of test mosquitos knocked down at regular intervals.

German cockroaches = test: Insecticidal aerosol efficacy, sealed drum apparatus (GB/T13917.2-2009), German cockroaches; settings: 1 g sprayed; for Mortality rate: aerosol 0.3% active ingredient, 72 h; for KT50: aerosol containing 0.3% active ingredient
Procedure: as §1, §2, §3

Mosquitoes = test: Insecticidal aerosol efficacy, sealed drum apparatus (GB/T13917.2-2009), mosquitoes; settings: for Mortality rate: aerosol 0.3% active ingredient, 24 h; for Mortality rate / KT50: 1 g sprayed, mosquitoes; for KT50: aerosol containing 0.3% active ingredient
Procedure: as §1, §2, §3

[2] = Rat acute dermal toxicity; settings: in vivo, topical or ocular, read-out: rat acute dermal toxicity median lethal dose (LD50)
rat [3] = test: Rat acute dermal toxicity
Rat acute oral toxicity = settings: in vivo, read-out: rat acute oral toxicity median lethal dose (LD50)
rat [4] = test: Rat acute oral toxicity

Row | SMILES | Mortality rate (Flies) | KT50 (Flies) | KT50 [1] | Mortality rate (German cockroaches) | KT50 (German cockroaches) | Mortality rate (Mosquitoes) | KT50 (Mosquitoes) | LD50 [2] | acute dermal toxicity classification (rat [3]) | LD50 (Rat acute oral toxicity) | acute oral toxicity classification (rat [4]) | activity as mosquito-repellent incense ([1]; as mosquito-repellent incense) | knockdown activity against mosquitoes (Mosquitoes; as an aerosol in a cylindrical container)
1 | CC1(C)C(/C=C\C#N)C1C(=O)OCc1cc(F)cc(F)c1F (centres unmarked) [Compound 1, 2,3,5-trifluorobenzyl (Z)-3-(2-cyanovinyl)-2,2-dimethylcyclopropanecarboxylate] | 100% | 2.32 min | 2.45 min | 95% | 4.05 min | 100% | 1.33 min | – | – | – | – | – | –
2 | CC1(C)C(/C=C\C#N)C1C(=O)OCc1c(F)ccc(F)c1F (centres unmarked) [Compound 2, 2,3,6-trifluorobenzyl (Z)-3-(2-cyanovinyl)-2,2-dimethylcyclopropanecarboxylate] | 100% | 4.65 min | 5.42 min | 90% | 6.26 min | 100% | 3.58 min | – | – | – | – | – | –
3 | CC1(C)C(/C=C\C#N)C1C(=O)OCc1c(F)c(F)cc(F)c1F (centres unmarked) [Compound 3, 2,3,5,6-tetrafluorobenzyl (Z)-3(2-cyanovinyl)-2,2-dimethylcyclopropanecarboxylate] | 100% | 3.45 min | 4.65 min | 95% | 5.52 min | 100% | 2.45 min | > 5000 mg/kg | slightly toxic | > 5000 mg/kg | slightly toxic | – | –
4 | COCc1c(F)c(F)c(COC(=O)C2C(/C=C(/C)C#N)C2(C)C)c(F)c1F (centres unmarked) [Momfluorothrin, reference compound] | 70% | 15.28 min | 27.87 min | 60% | 17.56 min | 100% | 12.35 min | – | – | – | – | relatively poor activity | good knockdown activity
5 | COCc1c(F)c(F)c(COC(=O)C2C(C)(C)C2(C)C)c(F)c1F [tetramethylfluthrin, reference compound] | 80% | 8.56 min | 9.23 min | 65% | 9.12 min | 100% | 6.46 min | – | – | – | – | – | –
